Experimental data: patent US12357613B2, “Inhibitor for retinochoroidal disorders” (YAMAGUCHI UNIVERSITY, priority 2013, dated 2025)

Tests used:
[1] = system: murine retinal pigment epithelial cells; assay: Test on inhibition of three-dimensional collagen gel atrophy in murine retinal pigment epithelial cell; type: cell-based, mouse; settings: 1 ng/ml TGF-B2; 0.01, 0.1 or 1 μM; gel diameter after 24 hours; FIG. 1
Excerpt: (Test on Inhibition of Three-Dimensional Collagen Gel Atrophy in Murine Retinal Pigment Epithelial Cell)
Murine retinal pigment epithelial cells were used to assess the inhibition effect of a tested compound on three-dimensional collagen gel atrophy in accordance with the method of Nishida et al (Investigative Ophthalmology & Visual Science 42: 1247-1253 (2001)). A subretinal sheet-like pigment epithelial cell comprising a retinal pigment epithelial cell from a mouse eyeball was collected and grown in primary culture. The cultured cell was detached and collected from a culture slide with 0.05% Trypsin-EDTA. After washing twice in a serum free medium (MEM: product number 11095; Gibco), a serum-free medium was added to make a cell suspension. Type I collagen (3 mg/ml: product number 637-00653; Nitta Gelatin Inc.), 10×MEM, reconstitution buffer (product number 635-00791; Nitta Gelatin Inc.), cell suspension (1.1×10^7 cells/ml in MEM), and water were mixed on ice at the volume ratio of 7:1:1:0.2:1.8. A culture dish coated with 1% BSA was inoculated with the mixture (0.5 ml), which was incubated for one hour at 37° C. to make a collagen gel. Then, 0.5 ml each of serum free media, to which 1 ng/ml of TGF-B2 (R&D) and 0, 0.01, 0.1, or 1 μM of the benzoic acid of the invention were added, was added onto collagen gels and incubated at 37° C. The diameter of gels was measured after 24 hours. […]

[2] = system: murine subretinal scar model; assay: Test on inhibition of murine subretinal scar formation; type: in vivo, mouse C57BL/6; settings: 7 days after injection
Excerpt: (Test on Inhibition of Murine Subretinal Scar Formation)
A murine subretinal scar model was produced to study whether the benzoic acid of the invention has an effect of inhibiting subretinal scar formation. A subretinal scar model in a mouse was produced by the method shown below in accordance with the method of Young-joon et al (Investigative Ophthalmology & Visual Science, 52, 6089-6095([…])).
(Production of Murine Subretinal Scar Model)
First, laser was irradiated (0.05 seconds, 200 mW, 532 nm) onto one location on the posterior pole of fundus of mouse C57BL/6 (purchased from SLC) to destroy the Bruch's membrane, which enabled infiltration of inflammatory cells from the choroid as well as creation of air bubbles subretinally.
A 33G needle was then inserted from pars plana. 0.5 μl of 4×10^7 ml thioglycollate elicited peritoneal macrophage and 1 μg, 5 μg, or 50 μg of the benzoic acid of the invention were subretinally injected. For the control, the benzoic acid of the invention was not injected (0 μg).
The subretinal area was observed and subretinal scar region was measure 7 days after injection of the macrophage and the benzoic acid of the invention described above.

CC1(C)CCC(C)(C)c2cc(Cn3cccn3)c(/C=C/c3ccc(C(=O)O)cc3)cc21 [benzoic acid of the invention, (E)-4-(2-{3-[(1H-pyrazole-1-yl)methyl]-5,5,8,8-tetramethyl-5,6,7,8-tetrahydronaphthalene-2-yl}vinyl)benzoic acid]
collagen atrophy due to TGF (diameter of collagen gel) [1]: can inhibit collagen atrophy due to TGF
subretinal scar region (fibrillation region) ([2]; 1 μg, 5 μg or 50 μg subretinally injected with macrophages, FIG. 2B): narrows as the amount of injection of the benzoic acid of the invention increases
formation of a subretinal scar (subretinal observation) ([2]; 50 μg subretinally injected with macrophages, in comparison to the control, FIG. 2A): formation of a scar was inhibited
